Source: patent publication EP4752140A1, “SPIROCYCLICALKENYL OR AZAALKENYL COMPOUND, AND PHARMACEUTICAL COMPOSITION THEREOF, PREPARATION METHOD THEREFOR AND USE THEREOF” (Shanghai Meiyue Biotech Development Co., Ltd., priority 2023, dated 2025)
pIC50: −log10 of the molar value.

What was measured:
normal human serum (NHS) = experiment: Complement-mediated hemolytic activity assay; assay type: cell-based; settings: Erythrocyte, lysis of rabbit erythrocytes (RE) by NHS, GVB0 buffer with 10 mM Mg-EGTA, 37°C, read-out: Hemolysis IC50
Protocol: The hemolysis assay was performed with reference to the method described in Xuan Yuan et al., Haematologica. (2017) 102: 466-475. Prior to the assay, the optimal concentration of normal human serum (NHS) required to achieve 100% lysis of rabbit erythrocytes (RE) was determined by titration. In this assay, NHS (collected from healthy volunteers) was diluted in GVB^0 buffer containing 10 mM Mg-EGTA (0.1% gelatin, 5 mM Veronal, 145 mM NaCl, 0.025% NaN3, pH 7.3, Complement Technology) and incubated with various concentrations of test compounds at 37°C for 15 minutes. RE (collected from healthy Japanese white rabbits), freshly suspended in GVB^0 buffer containing 10 mM Mg-EGTA, were then added to achieve a final concentration of 1 × 10^8 cells/mL and incubated at 37°C for 30 minutes. The positive control group (100% lysis) consisted of GVB^0 buffer containing 10 mM Mg-EGTA with NHS and RE but without test compounds. The negative control group (0% lysis) consisted of GVB^0 buffer containing 10 mM Mg-EGTA with inactivated NHS (heated at 56°C for 30 minutes or 65°C for 5 minutes) and RE but without test compounds. After centrifugation of the samples at 2000 g for 5 minutes, the supernatant was collected. Absorbance at 415 nm (A415) was measured using a microplate reader (Molecular Devices, SpectraMax i3X). IC50 values were calculated by nonlinear regression from the percentage of hemolysis as a function of test compound concentration.

[1] = tested on: Alternative Pathway of the Human Serum Complement System; experiment: Inhibitory effect on the alternative pathway of the human serum complement system (Wieslab kit); assay type: biochemical; settings: complement activity, OD405, LPS-coated plate
Protocol: Test compounds were evaluated starting at a concentration of 10 µM, with 3-fold serial dilutions across 8 concentration points. The final concentration of DMSO was 0.1%, and all measurements were performed in duplicate. A vial of human serum (Complement Technology, NHS) was removed from a -80°C ultra-low temperature freezer and allowed to thaw completely on ice. […] The plate was gently mixed on a microplate thermoshaker and incubated at room temperature for 15 minutes. Subsequently, 100 µL of the above mixture was carefully transferred to the pre-coated (LPS-containing) plate provided in the kit (WIESLAB® Complement System Alternative Pathway, AP330RUO). Additionally, 100 µL of Diluent AP was used as a blank control to avoid bubble formation. The plate was incubated at 37°C for 65 minutes. After incubation, the liquid in the wells was discarded, and the plate was washed with 1× wash buffer (300 µL/well) four times, with the liquid being removed as thoroughly as possible from the plate after the final wash. 100 µL of conjugate was added to each well, and the plate was incubated at room temperature (20 to 25°C) for 30 minutes, followed by repetition of the washing step. 100 µL of substrate solution was then added to each well, and the plate was incubated at room temperature (20 to 25°C) for 30 minutes in the dark. The OD405 value was read immediately, or the reaction was terminated by addition of 5 mM EDTA, and the OD405 value was read within 60 minutes. Complement activity was calculated according to the formula: % complement activity = (Sample - NC) / (PC - NC) × 100, and data analysis was performed.

[2] = Single-dose PK study in mice; settings: mouse, in vivo, male ICR mice, oral gavage 10 mg/kg, plasma
Protocol: (§1) Male ICR mice (Shanghai Bikai Keyi Biotechnology Co., Ltd.) weighing approximately 25 g were fasted overnight. Three […] per group were administered the test compounds by oral gavage at a dosing volume of 10 mL/kg. Blood samples (30 µL per time point) were collected via the orbital sinus into EDTA-K2 anticoagulant tubes and immediately centrifuged at 4000 rpm for 5 minutes at 4°C. The supernatants were collected. Blood samples were collected at the following time points: 15 minutes, 30 minutes, 1 hour, 2 hours, 4 hours, 7 hours, and 24 hours. The animals were continuously monitored for general condition after dosing. After completion of blood collection at all time points, the animals were euthanized. Plasma samples were analyzed by LC-MS/MS, and pharmacokinetic parameters were calculated using WinNonlin software.

[3] = Single-dose PK study in rats; assay type: in vivo; settings: male SD rats, oral gavage 3 mg/kg, plasma; for half-life: read-out: Half-life T1/2 (converted); for Cmax: read-out: Maximum plasma concentration Cmax
Protocol: as §1, with “SD rats” for “ICR mice”, “Co.” for “Co.,”, “aged 6 to 9 weeks” for “weighing approximately 25 g”, “(0.2 mL” for “(30 µL”, “jugular vein” for “orbital sinus”

[4] = rat, in vivo, read-out: Area under the curve AUC0-24h
[5] = rat, read-out: Area under the curve AUC0-24h

`COc1cc(C)c2[nH]ccc2c1CN1CCC(C=C(F)F)C[C@H]1c1ccc(C(=O)O)cc1Cl` (some centres unmarked) [Compound 34-1] showed a pIC50 (normal human serum (NHS)) of 7.21.

`COc1cc(C)c2[nH]ccc2c1CN1CC[C@H](C=C2CC2)C[C@H]1c1ccc(C(=O)O)cc1` [Compound 41-P1] showed a pIC50 (normal human serum (NHS)) of 7.46.

Compound `COc1cc(C)c2[nH]ccc2c1CN1CCC2(CC(=C(F)F)C2)C[C@H]1c1ccc(C(=O)O)cc1` (some centres unmarked) [Compound 1] has a pIC50 [1] of 7.27, an AUC(0-t) at 24 h ([2]; read-out: Area under the curve AUC0-24h) of 9230 ng·h/mL and a half-life ([2]; read-out: Half-life T1/2 (converted)) of 13.1 h. It also gave a Cmax ([2]; read-out: Maximum plasma concentration Cmax) of 1530 ng/mL, a pIC50 (normal human serum (NHS)) of 7.06 and an AUC(0-t) at 24 h [3, 4] of 8320 ng·h/mL. The half-life ([3]; rat, in vivo) was 11.3 h and the Cmax ([3]; rat, in vivo) was 720 ng/mL.

With `[2H]C([2H])([2H])Oc1cc(C)c2[nH]ccc2c1CN1CC[C@H](C=C(F)F)C[C@H]1c1ccc(C(=O)O)cc1` [Compound 39-P1] the pIC50 (normal human serum (NHS)) was 6.95, the AUC(0-t) at 24 h [3, 5] was 13300 ng·h/mL and the half-life ([3]; rat) was 9.44 h. It also gave a Cmax ([3]; rat) of 1280 ng/mL.

In the case of `COc1cc([C@@H]2C[C@@H](C=C(F)F)CCN2Cc2c(OC)cc(C)c3[nH]ccc23)ccc1C(=O)O` [Compound 36-P1], the pIC50 (normal human serum (NHS)) was 7.36, the AUC(0-t) at 24 h [3, 4] was 4500 ng·h/mL and the half-life ([3]; rat, in vivo) was 8.29 h. For the same compound, the Cmax ([3]; rat, in vivo) was 667 ng/mL.

With `COc1cc(C)c2[nH]ccc2c1CN1CC[C@H](C=C(F)F)C[C@H]1c1ccc(C(=O)O)c(O)c1` [Compound 40-P1] the pIC50 (normal human serum (NHS)) was 7.66.

`COc1cc(C)c2[nH]ccc2c1CN1CC[C@H](C=C(F)F)C[C@H]1c1ccc(C(=O)O)c(Cl)c1` [Compound 35-P1] gave a pIC50 (normal human serum (NHS)) of 7.21.

Work on `COc1cc(Cl)c2[nH]ccc2c1CN1CC[C@H](C=C(F)F)C[C@H]1c1ccc(C(=O)O)cc1` [Compound 38-P1] yielded a pIC50 (normal human serum (NHS)) of 6.86.

`COc1cc(C)c2[nH]ccc2c1CN1CC[C@H](C=C(F)F)C[C@H]1c1ccc(C(=O)O)cc1C` (single isomer, unassigned) [Compound 33-P1] gave a pIC50 [1] of 7.30, a pIC50 (normal human serum (NHS)) of 7.08 and an AUC(0-t) at 24 h [3, 4] of 10700 ng·h/mL. The half-life ([3]; rat, in vivo) was 11.2 h and the Cmax ([3]; rat, in vivo) was 1240 ng/mL.

In the case of `Cc1cc(C2CC2)c(CN2CC[C@H](C=C(F)F)C[C@H]2c2ccc(C(=O)O)cc2)c2cc[nH]c12` [Compound 60-P1], the pIC50 (normal human serum (NHS)) was 6.94.

With `CCO[C@H]1CCN(Cc2c(OC)cc(C)c3[nH]ccc23)[C@H](c2ccc(C(=O)O)cc2)C1` [Comparative Example 1, reference compound] the “Clearance CL” value [3] was 13.549 mL/min/kg, the AUC(0-t) [3, 5] was 3660 ng·h/mL and the half-life ([3]; rat) was 3.38 h. For the same compound, the Cmax ([3]; rat) was 714 ng/mL.

Work on `Cc1cc(C)c2[nH]ccc2c1CN1CC[C@H](C=C(F)F)C[C@H]1c1ccc(C(=O)O)cc1` [Compound 37-P1] yielded a pIC50 (normal human serum (NHS)) of 7.68.

For `COc1cc(C)c2[nH]ccc2c1CN1CCC(=C(F)F)C[C@H]1c1ccc(C(=O)O)cc1` [Compound 19], the pIC50 (normal human serum (NHS)) was 5.55.

Work on `COc1cc(C)c2[nH]ccc2c1CN1CC[C@H](C=C(F)F)C[C@H]1c1ccc(C(=O)O)cc1` [Compound 32-P1] yielded a pIC50 [1] of 7.33, a pIC50 (normal human serum (NHS)) of 7.03 and an AUC(0-t) at 24 h [3, 5] of 17600 ng·h/mL. The half-life ([3]; rat) was 13.2 h and the Cmax ([3]; rat) was 1290 ng/mL.
